# From PMC8661032, “Broad-Spectrum Antibacterial Peptide Kills Extracellular and Intracellular Bacteria Without Affecting Epithelialization” (Frontiers in Microbiology, 2021)
# Like-named read-outs stand apart in the source and are kept apart here. Residues, ends and D or L forms follow the SMILES beside them.
# Tests used:
# E. coli K-12 MG1655 = experiment: Resistance development assay (serial passage), E. coli; type: cell-based, Escherichia coli; conditions: serial passage at sub-MIC in CAMHB, 32 days
# Source text: (§1) Bacteria (E. coli K-12 MG1655 and S. aureus ATCC 29213 and SO-SAU19-1) were serial passaged in CAMHB as described by [Silverman et al. (2001)] with some small modifications.
# E. coli [1] = experiment: microbe, parasite or virus in culture
# Method: (§2) Briefly, bacterial colonies from blood agar plates were suspended and grown in Cation-Adjusted Mueller-Hinton Broth (CAMHB, […] Ca^2+, […] Mg^2+). The bacterial suspension was adjusted to 0.5 McFarland standard (∼1 × 10^8 colony-forming units (CFU)/ml) and serial diluted 1:200 in CAMHB (∼5 × 10^5 CFU/mL). […] The suspension was plated out on blood agar plates to confirm the CFU/ml. Both the microtiter plates and the blood agar plates were incubated at 37°C for 24 h.
# E. faecium = experiment: microbe, parasite or virus in culture
# Method: as §2
# [2] = system: S. aureus ATCC 29213 and SO-SAU19-1; type: cell-based, Staphylococcus aureus
# Source text: as §1
# E. cloacae = experiment: microbe, parasite or virus in culture; conditions: 24 h
# Method: as §2
# K. pneumoniae = experiment: microbe, parasite or virus in culture
# Method: as §2
# A. baumannii = experiment: microbe, parasite or virus in culture
# Method: as §2
# S. aureus = experiment: microbe, parasite or virus in culture
# Method: as §2
# P. aeruginosa = experiment: microbe, parasite or virus in culture
# Method: as §2
# [3] = system: S. epidermidis MRSE (SO-SEP9-1); conditions: SO-SEP9-1, 24 h
# Method: as §2
# E. coli [4] = experiment: Growth inhibition assay (OD600 over 24 h); type: cell-based, Escherichia coli; set-up: Reduction of viability E. coli (60 μg/ml): key to the marks not given beside the values; conditions: LB medium
# Method: An overnight culture of Escherichia coli was diluted 1:100 in Luria-Bertani (LB) medium and allowed to grow until an optical density (OD) at 600 nm (OD600) of 0.06–0.1. APIM-peptides were prepared by serial dilution in Milli-Q H2O and kept at 4°C. Fresh LB medium (60 μl) was added to a flat-bottom microtiter plate. The bacterial suspension was diluted 1:100 in LB, and 75 μl of this suspension was added to the wells. Finally, 15 μl of APIM-peptide solution (to final concentrations 60, 120, and 240 μg/ml) or distilled water (positive control) was added to the wells, reaching a total volume of 150 μl per well. Data are presented only for the dose that separated the effect of the different peptides, i.e., 60 μg/ml. A blank sterile medium was used as negative control. The plates were incubated with shaking at 510 rpm at 37°C inside a plate reader (TECAN, Spark®), and OD was read every hour over a period of 24 h.
# The MIC for E. coli in LB medium is higher than that in CAMHB; thus, concentrations higher than the MIC given in Table 2 are used in the growth inhibition and mutagenesis assays. […]
# E. coli. Growth of E. coli in LB medium over 24 hours (Optical Density (OD) 600 nm) after addition
# of APIM-peptide variants 1-5 (60 µg/mL) at time t=0 (see Table 2). Negative (-) control is no
# bacteria added, positive (+) control is untreated bacteria.
# highest inhibition of growth.
# control (black filled line).
# HEK293 cells = system: HEK293 cells
# Method: HEK293 cells (6,000 cells/well) were seeded in 96-well microtiter plates. After 4 h, APIM-peptides (12–48 μg/ml) were added, and the cells were incubated without change of media for up to 4 days. Viability was measured using the 3-(4,5-dimethylthiazol-2-yl)-2,5-diphenyltetrazolium bromide (MTT) assay as described ([Gilljam et al., 2009]).
# (1 picture or pasted object on this page, not shown here)
# HaCaT keratinocytes = type: cell-based, human; conditions: betatide 2 μg/ml, 3-mm gap, similar to the uninfected cells
# Method: Bacterial growth was examined by plating of supernatants.
# Epithelialization was calculated from the change in the area of the gaps over time using freehand or rectangular selections in the software Fiji ImageJ 1.52p (National Institutes of Health, United States).
# =(AreaofgapinDay 1-Areaofgapineachconsecutiveday)/AreaofgapinDay 1
# Cpx mutant E. coli cells = Cpx mutant E. coli cells with constitutive active Cpx response; ref Frimodt-Moller et al., 2021; cited from earlier work
# Source text: This, in turn, can reduce the fitness of the bacteria, similar to what has been shown for another peptide targeting the β-clamp called griselimycin.
# bacteria = experiment: MIC comparisons between peptide variants (bacterium not stated); type: cell-based; conditions: betatide compared to ATX-101
# E. coli [5] = experiment: Rifampicin (RifR) mutagenesis assay after UV-C; type: cell-based, Escherichia coli; conditions: 20 μg/ml peptide, UV-C 20 mJ/cm^2, RifR assay, relative to untreated control
# Method: The rifampicin (Rif^R) mutagenesis assay was performed as described ([Nedal et al., 2020]). Briefly, an overnight culture of E. coli was diluted 1:1,000 and grown until an OD600 of 0.01. APIM-peptides (20 μg/ml) were added to LB media with glass beads (for uniform distribution of APIM-peptides) and incubated for 30 min at 37°C. The pellets were next collected, resuspended in 500 μl PBS, and exposed to UV-C (20 mJ/cm^2) in a six-well plate at 4°C. The unexposed bacteria (-UV) were otherwise handled exactly like the UV-exposed bacteria. Next, the cells were resuspended in LB media and incubated in a rotary shaker at 37°C at 250 rpm for 2 h before being harvested, diluted, and plated on LB with soft agar with and without rifampicin (100 μg/ml). Mutation frequency, Rif^R/10^8, is obtained as follows: (number of colonies on the rifampicin plate (Rif^R)/(number of colonies on LB plates without antibiotics), per milliliter of bacterial suspension. […]
# mutagenesis in E. coli more efficiently than the other peptide variants.
# Increase in mutation frequencies after treatment with UV-C (20 mJ/cm2) relative to spontaneous mutations frequencies using the RifR assay were determined. This increase is set to 100% for untreated control, and % reduction after addition of peptides 1-5 (20 μg/mL) are shown. Mean ± SD from three independent experiments. * p<0.05, ** p<0.005
# [6] = system: intracellular S. aureus ATCC 29213 in HaCaT cells; experiment: Intracellular infection model; type: cell-based, Staphylococcus aureus
# Method: The intracellular infection model used was modified from [Iqbal et al. (2016)] by optimizing the number of multiplicity of infection (MOI: number of bacteria per cell) and time of infection. Briefly, HaCaT cells (6.5 × 10^4/well) were seeded in 24-well plates and incubated overnight in a medium without antibiotics. The next day, approximately 1.25 × 10^5 cells/well were infected with S. aureus at an MOI of 100 in antibiotic-free media. The plates were incubated for 3 h. […] After 16 h of incubation, the extracellular media (100 μl) from each well were plated to confirm the eradication of extracellular S. aureus. Next, the cells were washed 2× with 500 μl PBS before they were lysed with 0.2% Triton-X (500 μl) for 30 min at room temperature. The lysed samples were placed on ice, and 500 μl cold Tryptic Soy Broth was added before they were plated on blood agar plates.
compound,measurement,setting,value
"CC1(C)S[C@@H]2[C@H](NC(=O)[C@H](N)c3ccccc3)C(=O)N2[C@H]1C(=O)O [Ampicillin, ampicillin]",increase in MIC relative to day 1,E. coli K-12 MG1655,≤ 64 ×
same,MIC,"E. coli [1]; Escherichia coli, MG1655, read-out: MIC in E. coli",16 µg/mL
same,Combination effect with 0.5× MIC betatide,"E. faecium; CCUG 59167 (vanA+), reduced MIC of antibiotic when combined with 0.5× MIC betatide",None
same,MIC,"E. faecium; Enterococcus faecium, 24 h",2050 µg/mL
same,MIC,"E. faecium; Enterococcus faecium, CCUG59167, 24 h",1 µg/mL
same,Combination effect with 0.5× MIC betatide,E. faecium; SO-EFU19-1 (vanB+),None
"CNC(C)C1CCC(N)C(OC2C(N)CC(N)C(OC3OCC(C)(O)C(NC)C3O)C2O)O1 (centres unmarked) [Gentamicin, gentamicin]",increase in MIC relative to day 1,"[2]; S. aureus ATCC 29213, serial passage, first experiment (parallel 1)",≤ 256 ×
same,increase in MIC relative to day 1,"[2]; S. aureus SO-SAU19-1 (MRSA), 20 passages",8 ×
same,MIC,E. cloacae; Enterobacter cloacae,> 1000 µg/mL
same,MIC,"E. coli [1]; Escherichia coli, 24 h",> 500 µg/mL
same,MIC,"E. coli [1]; Escherichia coli, MG1655, 24 h",0.5 µg/mL
same,Combination effect with 0.5× MIC betatide,E. coli [1]; MG1655,None
same,Combination effect with 0.5× MIC betatide,K. pneumoniae; ATCC 13883,Additive 4×
same,MIC,"K. pneumoniae; Klebsiella pneumoniae, 24 h",64 µg/mL
same,MIC,"K. pneumoniae; Klebsiella pneumoniae, ATCC13883, 24 h",0.5 µg/mL
same,Combination effect with 0.5× MIC betatide,K. pneumoniae; SO-KPN19-1 (ESBL-CARBA-D),Additive 4×
same,Combination effect with 0.5× MIC betatide,A. baumannii; ATCC 19606,None
same,MIC,"A. baumannii; Acinetobacter baumannii, 24 h",> 1000 µg/mL
same,MIC,"A. baumannii; Acinetobacter baumannii, ATCC19606, 24 h",8 µg/mL
same,MIC,"S. aureus; Staphylococcus aureus, ATCC29213, read-out: MIC in S. aureus ATCC 29213, ATCC 29213, values given in method text",1 µg/mL
same,MIC,"S. aureus; Staphylococcus aureus, ATCC29213, read-out: MIC in S. aureus, starting MIC of resistance development assay, CAMHB, strain not differentiated (ATCC 29213 and SO-SAU19-1)",1 µg/mL
same,Combination effect with 0.5× MIC betatide,P. aeruginosa; ATCC 27853,None
same,MIC,"P. aeruginosa; Pseudomonas aeruginosa, 24 h",16 µg/mL
same,MIC,"P. aeruginosa; Pseudomonas aeruginosa, ATCC27853, 24 h",2 µg/mL
same,Combination effect with 0.5× MIC betatide,P. aeruginosa; SO-PAE19-1 (multidrug resistant),None
CC[C@H](C)[C@H](NC(=O)CNC(=O)[C@H](CCCCN)NC(=O)[C@@H](NC(=O)[C@H](CC(C)C)NC(=O)[C@H](Cc1c[nH]c2ccccc12)NC(=O)[C@H](CCCNC(=N)N)NC(=O)[C@H](CC(=O)O)NC(=O)[C@H](CCSC)NC(C)=O)C(C)C)C(=O)N[C@@H](CC(C)C)C(=O)N[C@@H](CCC(N)=O)C(=O)N[C@@H](Cc1c[nH]c2ccccc12)C(=O)N[C@@H](CCCNC(=N)N)C(=O)N[C@@H](CCCCN)C(=O)N[C@H](C(=O)N[C@@H](CCCNC(=N)N)C(=O)N[C@@H](CCCNC(=N)N)C(=O)N[C@@H](CCCNC(=N)N)C(=O)N[C@@H](CCCNC(=N)N)C(=O)N[C@@H](CCCNC(=N)N)C(=O)N[C@@H](CCCNC(=N)N)C(=O)N[C@@H](CCCNC(=N)N)C(=O)N[C@@H](CCCNC(=N)N)C(=O)N[C@@H](CCCNC(=N)N)C(=O)N[C@@H](CCCNC(=N)N)C(=O)N[C@@H](CCCNC(=N)N)C(N)=O)[C@@H](C)CC [betatide] (Ac-MDRWLVKGILQWRKIRRRRRRRRRRR-NH2),MIC S. epidermidis MRSE,[3],16 µg/mL
same,MIC for MRSE in DMEM,[3],0.25 µg/mL
same,concentration tolerated by uninfected HaCaT cells,HaCaT cells,up to 40 μg/ml
same,inhibition of growth of E. coli (OD 600 nm),"E. coli [4]; 60 µg/mL, over 24 hours, Supplementary Figure S1",lowest OD after 8 hours
same,Reduction of viability E. coli (60 μg/ml),"E. coli [4]; 60 μg/ml peptide, OD600 every hour over 24 h, relative to untreated control",++++
same,MIC,E. cloacae,16 µg/mL
same,MIC,E. coli [1]; 24 h,16 µg/mL
same,MIC,"E. coli [1]; Clinical isolate SO-ECO19-1 (ESBL-CARB-A(CTX-M-24)/D(OXA-48)), CAMHB, 24 h, three independent experiments",16 µg/mL
same,MIC E. coli,"E. coli [1]; K-12 MG1655, CLSI broth microdilution, CAMHB, 37°C, 24 h, visible growth, net peptide concentration",16 µg/mL
same,MIC,K. pneumoniae; 24 h,16 µg/mL
same,MIC,A. baumannii; 24 h,8 µg/mL
same,MIC,"A. baumannii; Clinical isolate SO-ABA19-1 (ESBL-CARBA-D), CAMHB, 24 h, three independent experiments",8 µg/mL
same,MIC,S. aureus; 24 h,32 µg/mL
same,MIC,"S. aureus; Clinical isolate SO-SAU19-1 (MRSA), CAMHB, 24 h, three independent experiments",16 µg/mL
same,MIC,"S. aureus; Reference strain ATCC 29213, CAMHB, 24 h, three independent experiments",16 µg/mL
same,MIC,P. aeruginosa; 24 h,16 µg/mL
same,MIC,E. faecium; 24 h,8 µg/mL
same,Reduction of viability HEK293 (24 μg/ml),HEK293 cells,+
same,epithelialization of MRSE-infected HaCaT cells,HaCaT keratinocytes,completed at day 4
same,increase in MIC,Cpx mutant E. coli cells,2 ×
same,reduction of MIC by changes in the linker region,bacteria; from Table 2,~2 ×
same,reduction of MIC by amidation of the C-termini,bacteria; unpublished data,~4 ×
same,Reduction of mutation frequency E. coli (20 μg/ml),E. coli [5],++++
same,reduction in intracellular bacterial load,"[6]; betatide 24 μg/ml for 16 h, MOI 100, 3 h infection, extracellular bacteria killed by gentamicin, compared to untreated control",4 ×
same,intracellular bacterial load (CFU),"[6]; concentrations of betatide lower than 24 μg/ml, 16 h",did not cause a significant reduction in CFU
